Entries after “also recorded” stand apart in the source; their conditions may differ.

One assay deals with HCT116 cells. Nature of the assay: Subcutaneous transplantation of GREM1-CM-pretreated HCT116 cells in nude mice. Particulars: SB505124 10 mg/kg i.p. every other day. Format: in vivo, human cells in nude mice. As to the method:
For cecum-to-liver metastasis model, 1 × 10^6 MC38-luc cells were resuspended in 50 µL of PBS and injected into the cecum of GD mice or control mice (Grem1-CreER^T2/Rosa-LSL-DTA mice) (n = 6 mice in each group); 5 × 10^6 HCT116-luc cells transduced with lentivirus carrying a pLV or pLV-GREM1 were injected into the cecum of NOG mice (n = 5 mice in each group). SB505124 was administered via intraperitoneal injection at a dose of 10 mg/kg once every other day. The metastases were examined every 5 days post injection using an IVIS Lumina Imaging System. Mice were euthanized between 2 and 6 weeks after injection. […] Mice were euthanized 4 weeks after injection. The tumor tissues were collected for further evaluation.
Figure S8. SB505124 inhibits GREM1-CM-induced EMT and metastasis of CRC in vivo. […] D, RT–qPCR analysis of epithelial marker CDH1 and mesenchymal markers CTNNB1, SNAI1, ZEB1 in subcutaneous tumor tissues from the indicated treatment groups. n = 3 independent experiments. E-G, Representative IF images (E) and quantification (F, G) of E-CAD (green), SNAIL (red), and DAPI (blue) staining in tumors from the indicated groups. […] H, I, Representative IVIS images (H) and quantification (I) of NOG mice that were injected with HCT116-luc cells in the cecum wall and treated with either SB505124 or vehicle via abdominal injection. Liver metastases were imaged and quantified using the IVIS Lumina Imaging System (n = 5 mice per group). For B–D, F, G and I, data are presented as mean ± s.e.m. P values were calculated using one-way ANOVA with Bonferroni multiple-comparison test (B–D, F, and G) or two-tailed Student’s t-test (I).

In another assay the test system is SNAI1 promoter. Nature of the assay: ChIP–qPCR, SMAD2/3/4 binding to SNAI1 promoter. Particulars: SW480 cells, SB505124 10 µM, 24 h, n = 3 independent experiments. Format: cell-based, human. As to the method: SW480 cells were starved in DMEM with 1% FCS overnight before treatment with vehicle, 10 µM SB505124 for 24 h. Cells were fixed in 1% paraformaldehyde for 10 min at RT for DNA-protein cross-linking, followed by quenching with glycine. Cross-linking chromatin was prepared using the SimpleChIP® Enzymatic Chromatin IP Kit (CST, 9002) according to the manufacturer’s instructions. For immunoprecipitation, 10 µg chromatin was incubated with 10 µL anti-histone H3 rabbit IgG (CST, 14269, positive control), 2 µL normal Rabbit IgG (CST, 2729) or 5 µL anti-SMAD2/3 rabbit IgG (CST, 8685) at 4 °C overnight. 2% chromatin prior to immunoprecipitation was used as input. Chromatin-protein-antibody complex was captured by protein G magnetic beads, and chromatin was released by reversal of cross-links and purified using the SimpleChIP® Enzymatic Chromatin IP Kit (CST, 9002) according to the manufacturer’s instructions. DNA was quantified by qPCR with primers targeting predicted SMAD2/3/4 binding regions on GREM1 or SNAI1 promoters. DNA levels were normalized to the input, and the fold-change of enrichment was calculated over the control. ChIP–qPCR primers are listed in Supplementary Table 2.
Background: Real-time PCR tracks product formation cycle by cycle.

Assay [1] has as its system type I TGFβ/Activin receptors. Particulars: SB505124; cited from earlier work. As to the method:
Fig. 3 Secretory GREM1 binding of ACVR1C induces EMT via SMAD2/3 pathway. A, RNA sequencing was performed on HCT116 cells treated with GREM1 conditioned medium (GREM1-CM) or vector control conditioned medium (Vec-CM), followed by GSEA of the C2 gene sets. NES, normalized enrichment score; all P values equal to 0. B, Activation levels of the ACVR1C pathway markers (p-SMAD2/3 and SMAD2/3), as well as expression of the epithelial marker (E-CAD) and the mesenchymal markers (SNAIL, ZEB1, and β-CAT) were compared by immunoblotting analysis in SW480 and HCT116 cells treated with Vec-CM, GREM1-CM, GRE ...

Another assay deals with SW480 cells. In words: Scratch assay, SW480. Particulars: SW480, scratch assay 48 h; n = 3 independent experiments. Format: cell-based, human. The procedure: To investigate the effect of secreted GREM1 on CRC cells, an in vitro GREM1 secretion system was established using HEK293 cells. Stably GREM1-expressing cells (pcDNA3.1-GREM1) and empty-vector transfected cells (pcDNA3.1) were cultured in DMEM/F12 medium with 10% FBS until 40% confluence. After complete removal of the normal culture medium, HEK293-GREM1 and HEK293-Vec cells were continuously cultured in DMEM/F12 medium without FBS for 5 days before medium collection. GREM1 or Vector conditioned medium (GREM1-CM/Vec-CM) was then centrifuged at 1000 rpm for 30 min and the supernatant was collected for further study.
Cells were seeded into 6-well plates after centrifugation and digestion with 0.05% trypsin. When the cell density reached 90%, three vertical lines were scratched in each well with a 10 µL pipette tip and the floating cells were gently washed away with 1×PBS. Complete medium was added, and images of the scratch area were taken at 0 h. Three different fields of view were selected for each well. After photography, the medium was replaced with serum-free medium. Wound healing was documented at the same location after 24–48 h of incubation.

Take `Cc1cccc(-c2[nH]c(C(C)(C)C)nc2-c2ccc3c(c2)OCO3)n1` [SB505124]: the “E-CAD and SNAIL expression in subcutaneous tumors” value in the assay on HCT116 cells (IF, n = 5 mice per group) was “restored E-CAD expression and suppressed SNAIL expression”. Moreover, the “subcutaneous tumor progression and EMT” value in the assay with HCT116 cells (nude mice, GREM1-CM-pretreated HCT116, n = 6 mice per group) is “suppressed tumor progression and EMT”. Further, the “SMAD2/3/4 binding to SNAI1 promoter −787 site” value with SNAI1 promoter is “significantly decreased this binding”. For the same compound, the “selectivity of SMAD2/3 phosphorylation block” value in assay [1] is “selectively blocks the type I TGFβ/Activin receptors-mediated SMAD2/3 phosphorylation”. In addition, the “GREM1-CM-induced migration, effect of inhibitor” value in the assay with SW480 cells is “abolished; also recorded: suppressed”.

Values taken from PMC13371181, “A paracrine-to-autocrine shunt of GREM1 fuels colorectal cancer metastasis via ACVR1C” (Molecular Cancer, 2026).
